Entries after “also recorded” stand apart in the source; their conditions may differ.
Assays:
Assay type in all cases: in vivo, rat
[1] = tested on: plasma miRNAs; test: Real-time PCR of plasma miRNAs, 4% NaCl diet (Example 1)
Text: Detection of miRNAs in plasma during various disease settings is showing increasing diagnostic promise (Cortez M A and Calin G A (2009) Expert Opin Biol Ther. 9, 703-711). To determine whether there is a specific miRNA that correlates with antimiR-208a efficacy, we examined a panel of muscle related miRNAs during HS treatment.
(§1) RNA from plasma samples was isolated using Trizol LS Reagent (Invitrogen), using the manufacturer's protocol. Prior to RNA isolation, […] of two different synthetic C. elegans miRNA sequences were added to serve as internal controls for normalization of target miRNAs. The C. elegans sequences used were cel-miR-2 ([…], SEQ ID NO:5), and cel-lin-4 ([…]; SEQ ID NO:6) (Dharmacon). The final RNA pellet was re-suspended in a final volume equal to the initial plasma volume and 5 μl was used for subsequent RT-PCR reactions, as described above.

[2] = tested on: miR-208a, miR-499, miR-208b, Myh6, Myh7b, Myh7, Dynlt1, Vcpip, Tegt; test: Cardiac tissue real-time PCR, 6% NaCl diet (Example 3)
Protocol: (§2) One week following the initiation of the 6.0% NaCl diet, rats were dosed subcutaneously (sc) with saline or oligonucleotides (M−10101, 5′-CTTTTTGCTCGTCTTA-3′ (SEQ ID NO: 12) or M-10591, 5′-TCCTAGAAAGAGTAGA-3′ (SEQ ID NO:13)) at 25 mg/kg every 2 weeks. Captopril or water were dosed daily by oral gavage. Echocardiography was performed every 2 weeks starting one week post […] dosing. The Captopril dose for rat was selected to match the standard human dose in man.
For in vivo real-time PCR analysis, RNA was extracted from cardiac tissue using Trizol (Invitrogen) after which two μg RNA from each tissue sample was used to generate cDNA using Super Script II reverse transcriptase per manufacturer's specifications (Invitrogen). To detect the level of miR-208 RT-PCR was performed using the Taqman MicroRNA assay (Applied Biosystems, ABI) according the manufacturer's recommendations, using 10-100 ng of total RNA. The expression of a subset of genes was analyzed by quantitative real time PCR using Taqman probes purchased from AB.

[3] = tested on: plasma miRNAs; test: Real-time PCR of plasma miRNAs, 6% NaCl diet (Example 3)
Protocol: as §2
as §1, with “Quantitative real-time PCR analysis from plasma. RNA from” for “RNA from”

[4] = M-10101 25 mg/kg sc, Captopril po daily

Substance: M-10101: antimiR targeting bases 2 to 17 of mature miR-208a, LNA and DNA linked by phosphorothioate bonds; 5′-CTTTTTGCTCGTCTTA-3′ (SEQ ID NO: 12) (all phosphorothioate, sugars by position and methylation of C not given here; LNA/DNA mixmer; listed as Homo sapiens)
- Plasma miR-499 ([1]; 8 weeks after start of 4% HS diet, 7 weeks after onset of antimiR treatment, listed as antimiR-208a): significantly reduced; also recorded: significantly lowers
- Plasma miR-423-5p ([1]; 8 weeks after start of 4% HS diet, listed as antimiR-208a): reduced; also recorded: decrease
- Plasma miR-1 ([1]; Dahl hypertensive rats): no response
- Plasma miR-208a ([1]; Dahl hypertensive rats): no response
- Expression of direct target genes of miR-208a (Dynlt1, Vcpip, Tegt) in cardiac tissue ([2]; 25 mg/kg sc): increase in expression
- miR-208a cardiac level ([2]; 25 mg/kg sc every 2 weeks): further reduced
- miR-208b cardiac level ([2]; 25 mg/kg sc every 2 weeks): reduction of cardiac levels
- miR-499 cardiac level ([2]; 25 mg/kg sc every 2 weeks): reduction of cardiac levels
- Myh7b levels in the heart [2, 4]: specifically reduced
- αMHC (Myh6) in the heart (reduced by HS diet) [2, 4]: normalized
- βMHC (Myh7) expression (increase induced by HS diet) ([2]; M-10101 25 mg/kg sc, Captopril po daily, listed as antimiR-208a): more effective; also recorded: not significantly different from animals on the LS diet
- Plasma miR-19b [3]: significantly increased
- Plasma miR-223 [3]: more significant decrease
- Plasma miR-423-5p, miR-106b, miR-16, miR-92a, miR-378, miR-210, miR-378*, miR-20b and miR-93 [3]: decreased
